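Five compound concentrations were applied to cells in 96-well plates for 48 hours; endpoints were derived by simple linear interpolation of the resulting dose-response curve. Abbreviation: GI50, concentration required for 50% inhibition of growth.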 The source made the active and inactive calls. No stated cut-off is given here; in the data, active = GI50 up to about 1.1 µM and inactive = higher.
What was measured:
Assay in all cases: growth of human tumour cells (NCI), 48 h
[1] = system: SNB-78
[2] = system: KM-20L2
[3] = system: RXF 631
[4] = system: DMS-273
[5] = system: DMS-114
[6] = system: XF498
[7] = system: DLD-1
[8] = system: M19-MEL
[9] = system: HOP-18

Row | SMILES | GI50 [1] | GI50 [2] | GI50 [3] | GI50 [4] | GI50 [5] | GI50 [6] | GI50 [7] | GI50 [8] | GI50 [9]
1 | COc1c(Cl)c2c(c(OC)c1OC)-c1ccc(OC)c(=O)c(Cl)c1C(NC(C)=O)CC2 (configuration not stated) | 0.36 µM (active) | 0.12 µM (active) | 0.473 µM (active) | 0.116 µM (active) | 0.224 µM (active) | 0.34 µM (active) | 0.345 µM (active) | 0.262 µM (active) | 
2 | COc1cc(C2c3cc4c(cc3[C@@H](OCCN(C)C)C3COC(=O)[C@H]23)OCO4)cc(OC)c1O (some centres not stated) | 5.13 µM (inactive) | 0.855 µM (active) | 0.0655 µM (active) | 0.052 µM (active) |  | 0.239 µM (active) | 1.03 µM (active) |  | 0.42 µM (active)
3 | CC(C)(C)c1cc(COc2c3sc(=S)sc3c(OCc3cc(C(C)(C)C)cc(C(C)(C)C)c3)c3sc(=S)sc23)cc(C(C)(C)C)c1 |  | > 100 µM (inactive) |  | > 100 µM (inactive) |  | > 100 µM (inactive) | > 100 µM (inactive) | > 100 µM (inactive) | > 100 µM (inactive)
4 | Cn1c(=O)nc2n(-c3cc(C(F)(F)F)cc(C(F)(F)F)c3)c3ccccc3nc-2c1=O | > 100 µM (inactive) | > 100 µM (inactive) |  | 45.7 µM (inactive) | 26.3 µM (inactive) | > 100 µM (inactive) |  | 13.8 µM (inactive) | 
5 | O=C(Nc1ccccc1-c1nn(CO)c(=S)n(CO)c1=O)C(F)(F)F | > 100 µM (inactive) |  |  | > 100 µM (inactive) | > 100 µM (inactive) | > 100 µM (inactive) | 95.7 µM (inactive) |  | 
6 | COc1c2c(cc3nc4ccccc4nc13)CCC(C(C)(C)O)C2 (configuration not stated) | > 100 µM (inactive) | > 100 µM (inactive) |  | 63.4 µM (inactive) |  | > 100 µM (inactive) | > 100 µM (inactive) | > 100 µM (inactive) | 86.5 µM (inactive)
7 | NCCCN(CCCN)CCCNCc1c2ccccc2c(CNCCCN(CCCN)CCCN)c2ccccc12 | 30.8 µM (inactive) | 25.2 µM (inactive) | 16 µM (inactive) | 6.08 µM (inactive) |  | 17.1 µM (inactive) | 14.7 µM (inactive) | 7.59 µM (inactive) | 6.73 µM (inactive)
8 | O=C1C(O)=C(CN(CCCl)CCCl)C(=O)c2ccccc21 | 70.8 µM (inactive) | 28.7 µM (inactive) | 87.9 µM (inactive) |  |  | > 100 µM (inactive) | 44.3 µM (inactive) | 54.6 µM (inactive) | 
9 | CC1CC2(CC[C@@H]1O)OCCO2 (some centres not stated) | > 100 µM (inactive) |  | > 100 µM (inactive) | > 100 µM (inactive) |  | > 100 µM (inactive) | > 100 µM (inactive) | > 100 µM (inactive) | 
10 | CC(C)N1C(C)[C@@H](c2ccccc2)O[P@@]1(=O)CC1=CCCCC1 (some centres not stated) |  | > 100 µM (inactive) |  |  | 51.4 µM (inactive) | > 100 µM (inactive) | > 100 µM (inactive) | > 100 µM (inactive) | > 100 µM (inactive)
11 | O=C1c2ccccc2NC1(c1ccccc1)c1c(-c2ccccc2)[nH]c2ccccc12 (configuration not stated) | 33.6 µM (inactive) | 25.1 µM (inactive) | 9.73 µM (inactive) | 6.84 µM (inactive) | 15.3 µM (inactive) | 44 µM (inactive) | 9.2 µM (inactive) | 24.3 µM (inactive) | 44.8 µM (inactive)
12 | C/C(=N\O)c1sc(-n2nc(-c3ccccc3)cc2-c2ccccc2)nc1C | 29.8 µM (inactive) | 11.5 µM (inactive) | 14.8 µM (inactive) | 22.5 µM (inactive) | 12.4 µM (inactive) | > 10 µM (inactive) | 11.5 µM (inactive) | 13.3 µM (inactive) | > 10 µM (inactive)
13 | CCCCCCc1cc(C(=O)Nc2cccc(C(F)(F)F)c2)nc(N)n1 | > 100 µM (inactive) | > 100 µM (inactive) | > 100 µM (inactive) | > 100 µM (inactive) | > 100 µM (inactive) |  | > 100 µM (inactive) | > 100 µM (inactive) | > 100 µM (inactive)
14 | N#CC1=C(c2ccccc2)C(O)(c2ccccc2)NC1=O (configuration not stated) |  | 47.5 µM (inactive) | 99.8 µM (inactive) | > 100 µM (inactive) | > 100 µM (inactive) | > 100 µM (inactive) | 71.3 µM (inactive) | > 100 µM (inactive) | 31.7 µM (inactive)
15 | CCOC(=O)C(=O)Nc1ccc(Cl)c(C(F)(F)F)c1 | > 100 µM (inactive) | > 100 µM (inactive) | > 100 µM (inactive) | > 100 µM (inactive) | > 100 µM (inactive) |  | > 100 µM (inactive) | > 100 µM (inactive) | > 100 µM (inactive)
16 | O=C1c2c(nc3ccccc3c2-c2ccccc2)CN1Nc1ccccc1 |  | > 100 µM (inactive) |  |  | > 100 µM (inactive) | > 100 µM (inactive) | > 100 µM (inactive) | > 100 µM (inactive) | 
17 | CC(C)C1=Cc2ccc3c(c2C(=O)C1=O)CCCC3 | 4.93 µM (inactive) | 19.1 µM (inactive) | 9.91 µM (inactive) | 2.21 µM (inactive) | 1.16 µM (inactive) | 2.15 µM (inactive) | 1 µM (active) | 2.9 µM (inactive) | 3.51 µM (inactive)
18 | CC(C)=CC(C(O)c1ccccc1)S(=O)(=O)c1nccn1C (configuration not stated) |  | > 100 µM (inactive) | > 100 µM (inactive) | > 100 µM (inactive) | > 100 µM (inactive) | > 100 µM (inactive) | > 100 µM (inactive) | > 100 µM (inactive) | > 100 µM (inactive)
19 | COc1cc(CC(C(=O)O)C(=O)O)c(OC)cc1CC(C(=O)O)C(=O)O | > 100 µM (inactive) | > 100 µM (inactive) |  | > 100 µM (inactive) | > 100 µM (inactive) | > 100 µM (inactive) | > 100 µM (inactive) | > 100 µM (inactive) | 
20 | CC(C)C(Sc1nc(-c2ccccc2)c(-c2ccccc2)[nH]1)C(=O)N/N=C/c1ccc([N+](=O)[O-])cc1 (configuration not stated) | 24.8 µM (inactive) | 15.1 µM (inactive) |  | 12 µM (inactive) | 25.9 µM (inactive) | 16.2 µM (inactive) | 30.8 µM (inactive) | 11.6 µM (inactive) | 
21 | Cc1nn(C)cc1P(=S)(c1ccccc1)c1ccccc1 | 51.2 µM (inactive) | > 100 µM (inactive) |  | 31.6 µM (inactive) | 30.9 µM (inactive) | > 100 µM (inactive) | 51.4 µM (inactive) | 59.3 µM (inactive) | > 100 µM (inactive)
22 | COc1ccc(/C=C2/CCCC/C2=N/O)cc1 | 94.2 µM (inactive) | > 100 µM (inactive) | > 100 µM (inactive) | 42.7 µM (inactive) | 42.6 µM (inactive) |  | 67.5 µM (inactive) | > 100 µM (inactive) | > 100 µM (inactive)
23 | COc1ccc2nc(NC(=O)C(=O)NNC(=O)c3ccncc3)sc2c1 | > 100 µM (inactive) | > 100 µM (inactive) |  |  | > 100 µM (inactive) | > 100 µM (inactive) | > 100 µM (inactive) | > 100 µM (inactive) | > 100 µM (inactive)
24 | CCCCCCCCCc1cc(=O)c2ccc(O)cc2o1 | 38.9 µM (inactive) | > 100 µM (inactive) | 46.2 µM (inactive) | 46.8 µM (inactive) | 11.3 µM (inactive) | 86.5 µM (inactive) | > 100 µM (inactive) | > 100 µM (inactive) | > 100 µM (inactive)
25 | O=C1C2C3C=CC(C2C(=O)N1CN1CCOCC1)C1C2C(=O)N(CN4CCOCC4)C(=O)C2C31 (configuration not stated) | 32.9 µM (inactive) | 27.4 µM (inactive) | 11.5 µM (inactive) | 18.2 µM (inactive) | 16.2 µM (inactive) |  | 40.4 µM (inactive) | 22.9 µM (inactive) | 22.1 µM (inactive)
26 | COC(=O)C1=C(c2ccc3c(c2)OCO3)OC(c2ccc3c(c2)OCO3)C1 (configuration not stated) | > 100 µM (inactive) | > 100 µM (inactive) | > 100 µM (inactive) | > 100 µM (inactive) | 30.1 µM (inactive) | > 100 µM (inactive) | > 100 µM (inactive) | > 100 µM (inactive) | 69.7 µM (inactive)
